For test [1], the target named is hT2R71 (Homo sapiens (Human), UniProt P59536). Put plainly: hT2R panel inhibition, transient HEK293 G16g44, agonist Picric Acid 10 μM. Particulars: HEK293, compound at 25 μM; receptor activated to EC80 with the corresponding agonist; read-out: screening result against bitter receptor 71. Format: cell-based. How it is done: (§1) Specifically, in order to evaluate the inhibitory selectivity of the Compound C compound, this compound was tested against 22 human T2Rs which were deorphaned by Senomyx. These receptors and the bitter ligands that activate these human T2Rs are reported in earlier patent applications which are incorporated by reference herein. These 22 human T2Rs are hT2R1, 3, 4, 5, 7, 8, 9, 10, 13, 14, 16, 44, 51, 54, 55, 61, 63, 64, 65, 67, 71 and 75. The amino acid and nucleic acid sequences of all of these T2Rs may be found in these earlier patent applications. These human T2Rs were each individually transiently transfected into HEK293 cells that stably express the promiscuous G protein G16g44 and functional assays were effected using these receptors as disclosed in these same patent applications. […] The ligands were used at EC80 concentration levels. The list of bitter ligands utilized and the tested ligand concentrations are contained in Table 5 of this example.
Sequence of hT2R71 (P59536 whole entry): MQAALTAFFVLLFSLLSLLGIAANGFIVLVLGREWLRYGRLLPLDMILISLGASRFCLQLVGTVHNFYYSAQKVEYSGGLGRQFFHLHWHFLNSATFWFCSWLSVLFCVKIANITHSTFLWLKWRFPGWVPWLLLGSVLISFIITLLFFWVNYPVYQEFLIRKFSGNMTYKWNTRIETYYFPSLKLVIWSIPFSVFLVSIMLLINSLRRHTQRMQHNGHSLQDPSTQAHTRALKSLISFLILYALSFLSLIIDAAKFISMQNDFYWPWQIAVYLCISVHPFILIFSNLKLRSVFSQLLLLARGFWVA
(§2) Relating to the foregoing, FIG. 5 contains experimental results wherein Compound C was tested with different agonist compounds. The inhibition activity is represented by the reduction of receptor activity in the presence of Compound C. […] These 13 hT2Rs are hT2R3, 7, 10, 14, 16, 44, 51, 55, 61, 63, 64, 65, and 71.

The target of test [2] is hT2R64 (Homo sapiens (Human), UniProt P59538). Put plainly: hT2R panel inhibition, transient HEK293 G16g44, agonist Aristolochic Acid 1 μM. Format: cell-based. Particulars: HEK293, compound at 25 μM; receptor activated to EC80 with the corresponding agonist; read-out: screening result against bitter receptor 64. On the procedure: as §1, §2
Sequence of hT2R64 (P59538 whole entry): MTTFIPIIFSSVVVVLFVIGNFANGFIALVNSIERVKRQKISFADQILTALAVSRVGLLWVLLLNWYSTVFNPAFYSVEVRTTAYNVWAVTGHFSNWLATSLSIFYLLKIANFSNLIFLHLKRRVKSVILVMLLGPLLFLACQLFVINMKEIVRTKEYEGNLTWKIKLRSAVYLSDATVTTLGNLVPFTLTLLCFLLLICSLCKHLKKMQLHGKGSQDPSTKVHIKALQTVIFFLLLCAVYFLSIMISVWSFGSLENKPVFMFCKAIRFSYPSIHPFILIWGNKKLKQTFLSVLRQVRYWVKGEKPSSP
Test [3] deals with hT2R61 (Homo sapiens (Human), UniProt P59537). Put plainly: hT2R panel inhibition, transient HEK293 G16g44, agonist Aristolochic Acid 25 nM. Format: cell-based. Conditions: HEK293, compound at 25 μM; receptor activated to EC80 with the corresponding agonist; read-out: screening result against bitter receptor 61. On the procedure:
as §1, §2

Test [4] addresses T1, hT2R14 (Homo sapiens (Human), UniProt Q9NYV8). Put plainly: hT2R14 antagonist high-throughput FLIPR assay, stable cell line with G16g44, agonist aristolochic acid. Format: cell-based. Particulars: read-out: IC50 on hT2R14 bitter receptor. Put shortly: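 HEK293 cells stably expressing hT2R14 with chimeric G16g44 were stimulated with aristolochic acid (3 μM), giving 70-80% of maximal receptor activity. Test compounds were added together with the agonist, and antagonism was read as fluorescent calcium signal on FLIPR.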

Test [5] addresses T1, hT2R14. Put plainly: hT2R panel inhibition, transient HEK293 G16g44, agonist Aristolochic Acid 2 μM. Format: cell-based. Conditions: HEK293, compound at 25 μM; receptor activated to EC80 with the corresponding agonist; read-out: screening result against bitter receptor 14. On the procedure:
as §1

Test [6] has as its system hT2R44. Put plainly: hT2R panel inhibition, transient HEK293 G16g44, agonist Denatonium 0.5 μM. Format: cell-based, human. Conditions: compound at 25 μM; receptor activated to EC80 with the corresponding agonist. How it is done: as §1, §2
Test [7] addresses hT2R3 (Homo sapiens (Human), UniProt Q9NYW6). As to the kind of experiment: hT2R panel inhibition, transient HEK293 G16g44, agonist Chloroquine pH6.5 50 μM. Format: cell-based. Conditions: HEK293, compound at 25 μM; receptor activated to EC80 with the corresponding agonist; read-out: screening result against bitter receptor 3. How it is done:
as §1, §2

In test [8] the test system is hT2R55. As to the kind of experiment: hT2R panel inhibition, transient HEK293 G16g44, agonist Cinchonine 150 μM. Format: cell-based, human. Conditions: compound at 25 μM; receptor activated to EC80 with the corresponding agonist. How it is done:
as §1, §2

Test [9] deals with hT2R63. As to the kind of experiment: hT2R panel inhibition, transient HEK293 G16g44, agonist Caffeine 1 mM or Andrographolide 100 μM. Particulars: compound at 25 μM; receptor activated to EC80 with the corresponding agonist. Format: cell-based, human. On the procedure:
as §1, §2

From patent US9247759B2, “Identification of human T2R receptors that respond to bitter compounds that elicit the bitter taste in compositions, and the use thereof in assays to identify compounds that inhibit (block) bitter taste in compositions and use thereof” (SENOMYX, INC., priority 2007, dated 2016) come the findings set out here.

What is called IC50 is the midpoint of a concentration-inhibition curve.

Some results are limits rather than exact numbers.

Sequence of hT2R61 (P59537 whole entry): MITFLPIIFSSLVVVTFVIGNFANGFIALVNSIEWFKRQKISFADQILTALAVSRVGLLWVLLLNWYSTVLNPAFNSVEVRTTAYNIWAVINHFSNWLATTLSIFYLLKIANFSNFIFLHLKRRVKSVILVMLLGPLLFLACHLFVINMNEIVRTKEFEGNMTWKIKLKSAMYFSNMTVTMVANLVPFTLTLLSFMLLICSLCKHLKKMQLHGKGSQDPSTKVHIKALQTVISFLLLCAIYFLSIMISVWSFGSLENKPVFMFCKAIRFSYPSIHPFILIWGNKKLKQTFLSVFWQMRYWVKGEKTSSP
Sequence of hT2R3 (Q9NYW6 whole entry): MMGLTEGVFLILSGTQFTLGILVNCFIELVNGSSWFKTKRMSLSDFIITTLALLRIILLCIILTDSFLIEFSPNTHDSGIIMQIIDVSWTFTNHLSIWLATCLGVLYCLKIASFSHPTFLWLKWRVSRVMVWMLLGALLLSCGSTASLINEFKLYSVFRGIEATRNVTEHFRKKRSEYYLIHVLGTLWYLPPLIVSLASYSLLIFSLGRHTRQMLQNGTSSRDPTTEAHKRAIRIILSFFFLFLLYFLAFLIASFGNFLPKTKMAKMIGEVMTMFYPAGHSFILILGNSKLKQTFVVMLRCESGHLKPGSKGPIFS
T1 sequence (Q9NYV8 whole entry): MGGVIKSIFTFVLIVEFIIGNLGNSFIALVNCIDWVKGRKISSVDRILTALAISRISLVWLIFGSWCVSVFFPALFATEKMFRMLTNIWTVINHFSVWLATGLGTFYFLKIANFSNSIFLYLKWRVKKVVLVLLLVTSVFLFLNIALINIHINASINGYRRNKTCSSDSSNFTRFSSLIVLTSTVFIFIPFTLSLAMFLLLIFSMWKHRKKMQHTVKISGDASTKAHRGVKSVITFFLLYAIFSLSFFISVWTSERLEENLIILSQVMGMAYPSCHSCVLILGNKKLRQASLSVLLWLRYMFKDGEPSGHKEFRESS

Take `COc1ccc(CN(Cc2ccc(C(=O)O)cc2)S(=O)(=O)c2ccc(O)cc2)cc1` [Example 5-44, 4-((4-hydroxy-N-(4-methoxybenzyl)phenylsulfonamido)methyl)-benzoic acid]: the inhibition at 25 µM in [1] was 40 to 60%; in test [2] it was 40 to 60%; in test [3] it was greater than 80%; in test [5] it was greater than 80%; in [7], 20 to 40%. For the same compound, the IC50 in test [4] was 3.43 µM. Further, the “screening result against bitter receptor 44” value in test [6] was “++ (40% to 60% inhibition = ++)”. The “screening result against bitter receptor 55” value in test [8] is “+ (20% to 40% inhibition = +)”. Also, the “screening result against bitter receptor 63” value in test [9] is given as “++++ (80% or greater inhibition = ++++)”.
Turning to `COc1ccc(CN(Cc2ccccc2)S(=O)(=O)c2ccc(CC(=O)O)cc2)cc1` [Example 5-47, 2-(4-(N-benzyl-N-(4-methoxybenzyl)sulfamoyl)phenyl)acetic acid], the figures for the inhibition at 25 µM in test [1], in test [3] and in test [7] were 20 to 40%, 60 to 80% and 20 to 40%, respectively. Further, the “screening result against bitter receptor 44” value in [6] was “+ (20% to 40% inhibition = +)”. Besides, the “screening result against bitter receptor 63” value in test [9] is “+ (20% to 40% inhibition = +)”.
Consider `COc1ccc(CN(Cc2ccccc2)C(=O)c2ccc(C(=O)O)cc2)cc1` [Example 5-49, 4-(benzyl(4-methoxybenzyl)carbamoyl)benzoic acid], for which the inhibition at 25 µM in [1] fell in the range of 20 to 40%; in test [2], 40 to 60%; in [3], 60 to 80%; in test [7], 20 to 40%. In addition, the “screening result against bitter receptor 44” value in [6] was “+ (20% to 40% inhibition = +)”. Moreover, in test [8], the “screening result against bitter receptor 55” value was “++++ (80% or greater inhibition = ++++)”. Also, in [9], the “screening result against bitter receptor 63” value is reported as “+ (20% to 40% inhibition = +)”.
On to `COc1ccc(CNS(=O)(=O)c2ccc(C(=O)O)cc2)cc1` [Example 5-56, 4-(N-(4-methoxybenzyl)sulfamoyl)benzoic acid], for which the inhibition at 25 µM in test [2] and in test [7] was 20 to 40% each time.
On to `COc1ccc(CN(Cc2cccc(C)c2)S(=O)(=O)c2ccc(C(=O)O)cc2)cc1` [Example 5-65, 4-(N-(4-methoxybenzyl)-N-(3-methylbenzyl)sulfamoyl)benzoic acid], for which the inhibition at 25 µM in test [7] is 20 to 40%.
Regarding `COc1ccc(CN(Cc2ccncc2)S(=O)(=O)c2ccc(C(=O)O)cc2)cc1` [Example 5-86, 4-(N-(4-methoxybenzyl)-N-(pyridin-4-ylmethyl)sulfamoyl)benzoic acid], the inhibition at 25 µM in [3] fell in the range of 60 to 80%; in test [5], 20 to 40%. The “screening result against bitter receptor 44” value in test [6] is given as “+ (20% to 40% inhibition = +)”. Also, in test [9], the “screening result against bitter receptor 63” value is “+++ (60% to 80% inhibition = +++)”.
As for `COc1ccc(CN(Cc2ccccc2)C(=O)Nc2ccc(C(=O)O)cc2)cc1` [Example 5-94, 4-(3-benzyl-3-(4-methoxybenzyl)ureido)benzoic acid], the inhibition at 25 µM in test [1] lay in the range of 20 to 40%; in [2], 60 to 80%; in test [3], 20 to 40%; in test [7] it was 20 to 40%. In addition, in [6], the “screening result against bitter receptor 44” value is recorded as “++ (40% to 60% inhibition = ++)”.
`O=C(O)c1ccc(CN(Cc2ccc(F)cc2)S(=O)(=O)c2ccc(O)cc2)cc1` [Example 5-107, 4-((N-(4-fluorobenzyl)-4-hydroxyphenylsulfonamido)methyl)benzoic acid]: the inhibition at 25 µM in test [1] is 20 to 40%; in test [2], 60 to 80%; in test [3] it was greater than 80%; in test [5] it was 60 to 80%. Moreover, the “screening result against bitter receptor 44” value in [6] is on record as “+ (20% to 40% inhibition = +)”. Also, in [8], the “screening result against bitter receptor 55” value is “+ (20% to 40% inhibition = +)”. Further, the “screening result against bitter receptor 63” value in test [9] is “+++ (60% to 80% inhibition = +++)”.
